The assay deals with nude mice, HT29 intrarenal xenograft, tumor weight T/C. In words: NCI In Vivo Anticancer Drug Screen. Data for tumor model HT29;CX-1 Human Adenocarcinoma (MER+) (intrarenal inoculation) in NU/NU Swiss (nude) mice. The settings on record: endpoint: mean tumor weight change, higher = larger tumour. In short, it runs like this:
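Endpoint measured as tumor size or survival; ratio reported is treated group over vehicle controls.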

The mark [1] stands for this setting: dose: 75.0 mg/kg/injection, schedule: Q04DX004 (sc), vehicle: saline with Tween-80.
Where [2] appears, read: dose: 150.0 mg/kg/injection, schedule: Q04DX004 (sc), vehicle: saline with Tween-80.
Where [3] appears, read: dose: 300.0 mg/kg/injection, schedule: Q04DX004 (sc), vehicle: saline with Tween-80.
Where [4] appears, read: dose: 75.0 mg/kg/injection, schedule: Q04DX004 (sc), vehicle: saline.
Setting [5] is: dose: 150.0 mg/kg/injection, schedule: Q04DX004 (sc), vehicle: saline.
[6] abbreviates: dose: 300.0 mg/kg/injection, schedule: Q04DX004 (sc), vehicle: saline.
[7] abbreviates: dose: 50.0 mg/kg/injection, schedule: Q04DX004 (sc), vehicle: saline with Tween-80.
[8] abbreviates: dose: 100.0 mg/kg/injection, schedule: Q04DX004 (sc), vehicle: saline with Tween-80.
Where [9] appears, read: dose: 200.0 mg/kg/injection, schedule: Q04DX004 (sc), vehicle: saline with Tween-80.
Setting [10] is: dose: 50.0 mg/kg/injection, schedule: Q01DX010 (sc), vehicle: Klucel (hydroxypropylcellulose) (HPC).
Setting [11] is: dose: 100.0 mg/kg/injection, schedule: Q01DX010 (sc), vehicle: Klucel (hydroxypropylcellulose) (HPC).
Where [12] appears, read: dose: 100.0 mg/kg/injection, schedule: Q04DX004 (sc), vehicle: Klucel (hydroxypropylcellulose) (HPC).
[13] abbreviates: dose: 200.0 mg/kg/injection, schedule: Q04DX004 (sc), vehicle: Klucel (hydroxypropylcellulose) (HPC).
[14] abbreviates: dose: 400.0 mg/kg/injection, schedule: Q04DX004 (sc), vehicle: Klucel (hydroxypropylcellulose) (HPC).
The mark [15] stands for this setting: dose: 100.0 mg/kg/injection, schedule: Q01DX010 (sc), vehicle: saline.

Records with an inconclusive call do not appear.

Regarding `[Cl][Pt+2][Cl].[NH-]CC1(C[NH-])CCC1`, the T/C reads like this: (dose: 12.5 mg/kg/injection, schedule: Q04DX004 (sc), vehicle: suspension in saline) 87 % of control; (dose: 25.0 mg/kg/injection, schedule: Q04DX004 (sc), vehicle: suspension in saline) 61 % of control.
Turning to `CN=C(N)N/N=C(\C)c1ccc2oc3ccc(/C(C)=N/NC(N)=NC)cc3c2c1`, the T/C runs as follows: under setting [1], 156 % of control; under setting [2], 63 % of control; under setting [3], 98 % of control.
With `[I][Hg][CH2]C1COC([CH2][Hg][I])CO1` (stereo not drawn), the T/C by setting is: under setting [3], 54 % of control; (dose: 600.0 mg/kg/injection, schedule: Q04DX004 (sc), vehicle: saline with Tween-80) 55 % of control; (dose: 1200.0 mg/kg/injection, schedule: Q04DX004 (sc), vehicle: saline with Tween-80) 57 % of control; (dose: 2400.0 mg/kg/injection, schedule: Q04DX004 (sc), vehicle: saline with Tween-80) 32 % of control.
For `C=CCOCC1CO1` (stereo not drawn), the T/C by setting is: under setting [4], 120 % of control; under setting [5], 100 % of control; under setting [6], 54 % of control.
For `CC[C@]1(O)C[C@H]2CN(CCc3c([nH]c4ccccc34)[C@@](C(=O)OC)(c3cc4c(cc3OC)N(C=O)[C@H]3[C@@](O)(C(=O)OC)[C@H](OC(C)=O)[C@]5(CC)C=CCN6CC[C@]43[C@@H]65)C2)C1`, the T/C is 86 % of control (dose: 0.13 mg/kg/injection, schedule: Q01DX010 (sc), vehicle: saline) and 84 % of control (dose: 0.25 mg/kg/injection, schedule: Q01DX010 (sc), vehicle: saline).
Consider `O=C(Nc1ccccc1C(=O)O)c1cc([N+](=O)[O-])cc([N+](=O)[O-])c1`, for which the T/C by setting is: under setting [7], 91 % of control; under setting [8], 120 % of control; under setting [9], 119 % of control.
As to `CCC1CC2CN(CCc3c([nH]c4ccccc34)C(C(=O)OC)(c3cc4c(cc3OC)N(C)C3C(O)(C(=O)OC)C(OC(C)=O)C5(CC)C=CCN6CCC43C65)C2)C1` (stereo not drawn), the T/C was 209 % of control (dose: 1.0 mg/kg/injection, schedule: Q04DX004 (sc), vehicle: saline); 164 % of control (dose: 2.0 mg/kg/injection, schedule: Q04DX004 (sc), vehicle: saline); 58 % of control (dose: 4.0 mg/kg/injection, schedule: Q04DX004 (sc), vehicle: saline); 68 % of control (dose: 8.0 mg/kg/injection, schedule: Q04DX004 (sc), vehicle: saline).
With `CC(=O)N(C)c1ccc(Nc2cc(C)[nH]c3ccc4ncnc4c23)cc1`, the T/C is, setting by setting: under setting [7], 95 % of control; under setting [8], 68 % of control; under setting [9], 79 % of control.
On to `Cc1ccc2c(ccc(CC(=S)[S-])[n+]2C)c1`, for which the T/C is 96 % of control under setting [10]; 85 % of control under setting [11]; 44 % of control (dose: 200.0 mg/kg/injection, schedule: Q01DX010 (sc), vehicle: Klucel (hydroxypropylcellulose) (HPC)); 67 % of control (dose: 400.0 mg/kg/injection, schedule: Q01DX010 (sc), vehicle: Klucel (hydroxypropylcellulose) (HPC)).
As to `O=S(=O)(SC(S(=O)(=O)c1ccccc1)S(=O)(=O)c1ccccc1)c1ccccc1`, the T/C was 246 % of control under setting [12], 203 % of control under setting [13] and 246 % of control under setting [14].
As to `CCCCCn1c(C)cc(/C=C\c2ccc3cc(C)ccc3[n+]2C)c1C`, the T/C runs as follows: (dose: 1.0 mg/kg/injection, schedule: Q01DX010 (sc), vehicle: Klucel (hydroxypropylcellulose) (HPC)) 89 % of control; (dose: 2.0 mg/kg/injection, schedule: Q01DX010 (sc), vehicle: Klucel (hydroxypropylcellulose) (HPC)) 182 % of control; (dose: 4.0 mg/kg/injection, schedule: Q01DX010 (sc), vehicle: Klucel (hydroxypropylcellulose) (HPC)) 89 % of control.
For the compound `COc1cc2cc3c4cc(OC)c(OC)cc4cc[n+]3c(C)c2cc1OC` (tested in a mixture with another compound), the T/C runs as follows: (dose: 50.0 mg/kg/injection, schedule: Q01DX010 (sc), vehicle: saline) 76 % of control; under setting [15], 68 % of control.
Consider `CCOC(=O)Nc1cc2c(c(N)n1)N=C(c1ccc(Cl)cc1Cl)CN2`, for which the T/C reads like this: (dose: 37.5 mg/kg/injection, schedule: Q04DX004 (sc), vehicle: saline with Tween-80) 92 % of control; under setting [1], 150 % of control; under setting [2], 78 % of control; under setting [3], 83 % of control.
Consider `Nc1nc2c(C(=O)N3CCCC3)nnn2c2ccccc12`, for which the T/C under setting [1] is 157 % of control.
Turning to `CCCCCCCCCCCCCCCCCCOCC(COP(=O)([O-])OCC[N+](C)(C)C)OC` (stereo not drawn), the T/C was 98 % of control (dose: 37.5 mg/kg/injection, schedule: Q04DX004 (sc), vehicle: saline); 77 % of control under setting [4]; 50 % of control under setting [5].
Take `CCN(CC)CCNc1ccc(C)c2sc3ccccc3c(=O)c12`: the T/C under setting [15] was 87 % of control.
Take `N=C(N)Sc1cc(O)ccc1O`: the T/C under setting [4] is 49 % of control, the T/C under setting [5] is 54 % of control and the T/C under setting [6] is 54 % of control.
Regarding `CC1(C)COCN1COC1CCCCC1`, where the note is “dose: 100.0 mg/kg/injection, schedule: Q04DX004 (sc), vehicle: saline”, the T/C is 34 % of control.
As for `C=C(C)[C@]12CC(C)C34OC(/C=C\C=C\CCCCCCCCC)(O[C@@H]1[C@@H]3[C@@H]1O[C@]1(CO)[C@@H](O)[C@]1(O)C(=O)C(C)=C[C@@H]41)O2` (stereo partly drawn), the T/C was 73 % of control (dose: 0.38 mg/kg/injection, schedule: Q04DX004 (sc), vehicle: distilled water + alcohol); 40 % of control (dose: 0.75 mg/kg/injection, schedule: Q04DX004 (sc), vehicle: distilled water + alcohol); 63 % of control (dose: 1.5 mg/kg/injection, schedule: Q04DX004 (sc), vehicle: distilled water + alcohol); 37 % of control (dose: 3.0 mg/kg/injection, schedule: Q04DX004 (sc), vehicle: distilled water + alcohol).
Consider `NC(=S)c1ncn(C2OC(CO)C(O)C2O)c1N` (stereo not drawn), for which the T/C by setting is: (dose: 150.0 mg/kg/injection, schedule: Q04DX004 (sc), vehicle: suspension in saline) 95 % of control; (dose: 300.0 mg/kg/injection, schedule: Q04DX004 (sc), vehicle: suspension in saline) 120 % of control; (dose: 600.0 mg/kg/injection, schedule: Q04DX004 (sc), vehicle: suspension in saline) 102 % of control; (dose: 1200.0 mg/kg/injection, schedule: Q04DX004 (sc), vehicle: suspension in saline) 66 % of control.
With `OC1OC2COC(c3ccccc3)OC2C(O)C1O` (stereo not drawn), the T/C reads like this: (dose: 200.0 mg/kg/injection, schedule: Q04DX004 (sc), vehicle: water) 94 % of control; (dose: 400.0 mg/kg/injection, schedule: Q04DX004 (sc), vehicle: water) 118 % of control; (dose: 800.0 mg/kg/injection, schedule: Q04DX004 (sc), vehicle: water) 87 % of control; (dose: 1600.0 mg/kg/injection, schedule: Q04DX004 (sc), vehicle: water) 118 % of control.
In the case of `CNc1nc(N(C)C)nc(N(C)C)n1`, the T/C is 54 % of control (dose: 12.5 mg/kg/injection, schedule: Q04DX004 (sc), vehicle: water); 89 % of control (dose: 15.0 mg/kg/injection, schedule: Q01DX010 (sc), vehicle: water); 75 % of control (dose: 25.0 mg/kg/injection, schedule: Q04DX004 (sc), vehicle: water); 51 % of control (dose: 50.0 mg/kg/injection, schedule: Q04DX004 (sc), vehicle: water); 51 % of control (dose: 100.0 mg/kg/injection, schedule: Q04DX004 (sc), vehicle: water).
On to `C[CH2][Ge]([CH2]C)[CH2]C.C[CH2][Ge]([CH2]C)[CH2]C.C[CH2][Ge]([CH2]C)[O][Ge]([CH2]C)[CH2]C`, for which, under setting [2], the T/C was 112 % of control.
`CCCCc1ccc(-n2c(C)c(COC(=O)NC)c(COC(=O)NC)c2C)cc1`: the T/C runs as follows: under setting [10], 218 % of control; (dose: 50.0 mg/kg/injection, schedule: Q04DX004 (sc), vehicle: Klucel (hydroxypropylcellulose) (HPC)) 53 % of control; under setting [11], 89 % of control; under setting [12], 53 % of control; under setting [13], 73 % of control; under setting [14], 49 % of control.

(Values after PubChem BioAssay AID206 (DTP/NCI, 2004).)
